Measured values: publication PMC8812547 (Proceedings of the National Academy of Sciences of the …, 2022)

What was measured:
[1] = system: KV2.1; conditions: cited from earlier work
[2] = system: small dorsal root ganglion neurons; assay type: cell-based, mouse; conditions: A803467 1 µM with sPm1a; n = 6; sPm1a vs. A803467/sPm1a P = 0.0007
[3] = system: TTX-R NaV channels of small DRG neurons; assay type: cell-based, mouse; conditions: A803467 1 μM with sPm1a; TTX 0.5 μM; n = 5
[4] = system: adult mice (hindpaw); test: mechanical paw withdrawal threshold; assay type: in vivo, mouse; conditions: 200 pmol A803467 with 600 pmol sPm1a; n = 5 to 8; P < 0.001
[5] = system: adult mice (hindpaw); assay type: in vivo, mouse; conditions: 0.2 nmol A803467 coadministered with 0.6 nmol sPm1a, intraplantar; P < 0.001

| Compound | KV2.1 gating modification [1] | inhibition of sPm1a-induced neuronal firing [2] | reduction of sPm1a-sensitive TTX-R NaV component [3] [%] | paw withdrawal force (mechanical allodynia) [4] [g] | spontaneous nocifensive behavior, paw flinches [5] [flinches per 15 min] |
| --- | --- | --- | --- | --- | --- |
| ScTx1: gating-modifier venom peptide (DCTRMFGACRRDSDCCPHLGCKPTSKYCAWDGTI; Stromatoxin-1; UniProt P60991 1-34, looked up) | shifting its activation to more depolarized voltages |  |  |  |  |
| COc1cc(NC(=O)c2ccc(-c3ccc(Cl)cc3)o2)cc(OC)c1 [A803467] |  | abolished sPm1a-induced neuronal firing | 87.3 ± 11.1 | 2.5 ± 0.2 | 93.8 ± 8.8 |
